In ChEMBL document CHEMBL1201862, “PubChem BioAssay data set” (2004):
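Assay format: 96-well plates, 48-hour exposure. Abbreviation: GI50, concentration required for 50% inhibition of growth.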 Calls of active or inactive are those of the source. No stated cut-off is given here; in the data, active = GI50 up to about 1.1 µM and inactive = higher.

Tests used:
Test in all cases: growth of human tumour cells (NCI), 48 h
PC-3 = test system: PC-3
TK-10 = test system: TK-10
HCT-15 = test system: HCT-15
MDA-MB-231 = test system: MDA-MB-231
UACC-62 = test system: UACC-62
MDA-MB-435 = test system: MDA-MB-435
A498 = test system: A498
SN12C = test system: SN12C
NCI/ADR-RES = test system: NCI/ADR-RES
SF-295 = test system: SF-295
M14 = test system: M14
CAKI-1 = test system: CAKI-1
KM12 = test system: KM12
NCI-H226 = test system: NCI-H226
DU-145 = test system: DU-145
K562 = test system: K562
Hs-578T = test system: Hs-578T
OVCAR-5 = test system: OVCAR-5
NCI-H460 = test system: NCI-H460
SF-539 = test system: SF-539

Compound | GI50 (PC-3) | GI50 (TK-10) | GI50 (HCT-15) [µM] | GI50 (MDA-MB-231) | GI50 (UACC-62) | GI50 (MDA-MB-435) | GI50 (A498) | GI50 (SN12C) | GI50 (NCI/ADR-RES) | GI50 (SF-295) | GI50 (M14) | GI50 (CAKI-1) | GI50 (KM12) | GI50 (NCI-H226) | GI50 (DU-145) | GI50 (K562) | GI50 (Hs-578T) | GI50 (OVCAR-5) | GI50 (NCI-H460) | GI50 (SF-539)
O=C1C(c2c(O)[nH]c3ccc(Br)cc23)=Nc2ccccc21 | 5 µM (inactive) | 13.4 µM (inactive) | 5.41 | 15 µM (inactive) | 12.2 µM (inactive) | 6.9 µM (inactive) | 3.3 µM (inactive) | 28 µM (inactive) | 17.7 µM (inactive) | 15.5 µM (inactive) | 11.3 µM (inactive) | 2.65 µM (inactive) | 2.92 µM (inactive) | 15.1 µM (inactive) | 6.81 µM (inactive) | 5.62 µM (inactive) | 12.9 µM (inactive) | 11.9 µM (inactive) | 12.7 µM (inactive) | 
Cc1ccccc1/N=N/c1ccc(N/N=C2/CCCNC2=O)c(C)c1 | > 100 µM (inactive) | > 100 µM (inactive) | > 100 | > 100 µM (inactive) | > 100 µM (inactive) | > 100 µM (inactive) | > 100 µM (inactive) | > 100 µM (inactive) | > 100 µM (inactive) | > 100 µM (inactive) | > 100 µM (inactive) | > 100 µM (inactive) | > 100 µM (inactive) | > 100 µM (inactive) | > 100 µM (inactive) | > 100 µM (inactive) | > 100 µM (inactive) | > 100 µM (inactive) | > 100 µM (inactive) | 
COc1ccc(C(=O)C#Cc2cnc(OC)nc2OC)cc1 | 1.26 µM (inactive) | 1.67 µM (inactive) | 1.02 | 32400 µM (inactive) | 1.11 µM (active) | 2.57 µM (inactive) | 18.7 µM (inactive) | 1.19 µM (inactive) | 1.82 µM (inactive) | 12.4 µM (inactive) | 1.36 µM (inactive) | 1.19 µM (inactive) | 2.68 µM (inactive) | 1.47 µM (inactive) | 2.31 µM (inactive) | 0.367 µM (active) | 4.07 µM (inactive) | 1.64 µM (inactive) | 2.65 µM (inactive) | 
CC(C)OC(=O)[C@H]1ON2O[C@H](O[C@@H]3CCCC[C@H]3c3ccccc3)C([Si](C)(C)c3ccccc3)[C@H]3OC(=O)[C@@H]1C32 (some centres undefined) | > 100 µM (inactive) | > 100 µM (inactive) | > 100 | > 100 µM (inactive) | > 100 µM (inactive) | > 100 µM (inactive) | > 100 µM (inactive) | > 100 µM (inactive) | > 100 µM (inactive) | > 100 µM (inactive) | > 100 µM (inactive) | > 100 µM (inactive) | > 100 µM (inactive) | > 100 µM (inactive) | > 100 µM (inactive) | 34 µM (inactive) | > 100 µM (inactive) |  | > 100 µM (inactive) | > 100 µM (inactive)
NC(=O)C1=NNc2ccccc2C(=O)N1c1ccccc1 | > 100 µM (inactive) | > 100 µM (inactive) | > 100 | > 100 µM (inactive) | > 100 µM (inactive) | > 100 µM (inactive) | > 100 µM (inactive) | > 100 µM (inactive) | > 100 µM (inactive) | > 100 µM (inactive) | > 100 µM (inactive) | > 100 µM (inactive) | > 100 µM (inactive) | > 100 µM (inactive) | > 100 µM (inactive) |  | > 100 µM (inactive) | > 100 µM (inactive) | > 100 µM (inactive) | > 100 µM (inactive)
O/N=C1/Nc2cc(Cl)ccc2C(=S)N2CSCC12 (centres undefined) | > 100 µM (inactive) | > 100 µM (inactive) | > 100 | > 100 µM (inactive) | > 100 µM (inactive) | > 100 µM (inactive) | > 100 µM (inactive) | > 100 µM (inactive) | > 100 µM (inactive) | > 100 µM (inactive) | > 100 µM (inactive) | > 100 µM (inactive) | > 100 µM (inactive) | > 100 µM (inactive) | > 100 µM (inactive) | 87.3 µM (inactive) | > 100 µM (inactive) | > 100 µM (inactive) | > 100 µM (inactive) | 
CC(=O)Nc1c(S(=O)(=O)c2ccccc2)c(C)c(C)n1Cc1ccccc1 | 44.9 µM (inactive) | > 100 µM (inactive) | > 100 | > 100 µM (inactive) | > 100 µM (inactive) | > 100 µM (inactive) | > 100 µM (inactive) | > 100 µM (inactive) | > 100 µM (inactive) | > 100 µM (inactive) | > 100 µM (inactive) | > 100 µM (inactive) | 49.2 µM (inactive) | > 100 µM (inactive) | > 100 µM (inactive) | > 100 µM (inactive) | > 100 µM (inactive) | > 100 µM (inactive) | > 100 µM (inactive) | 
CSc1s[s+]c(SC)c1-c1ccccc1 | 21.7 µM (inactive) | 15.5 µM (inactive) | 16.4 | 12.2 µM (inactive) | 13.4 µM (inactive) | 18.9 µM (inactive) | 19.8 µM (inactive) | 16.3 µM (inactive) | 18.7 µM (inactive) | 17.6 µM (inactive) | 16.5 µM (inactive) | 17.1 µM (inactive) | 16 µM (inactive) |  | 70.1 µM (inactive) | 20.2 µM (inactive) | 25.4 µM (inactive) | 15.8 µM (inactive) | 29.7 µM (inactive) | 18.2 µM (inactive)
CNc1ccc([S+]([O-])Nc2ccc(OC)cc2)cc1 (centres undefined) | > 100 µM (inactive) | > 100 µM (inactive) | > 100 | 17.1 µM (inactive) | > 10 µM (inactive) | 14.2 µM (inactive) | > 100 µM (inactive) | > 100 µM (inactive) | 27.9 µM (inactive) | > 100 µM (inactive) | > 100 µM (inactive) | 65.5 µM (inactive) | 3.86 µM (inactive) | > 100 µM (inactive) | 39.5 µM (inactive) | 21.3 µM (inactive) | > 100 µM (inactive) |  | 32 µM (inactive) | 33.2 µM (inactive)
Cc1c(NC(=O)c2cc([N+](=O)[O-])cc([N+](=O)[O-])c2)c(=O)n(-c2ccccc2)n1C | 49.8 µM (inactive) | > 100 µM (inactive) | 83.9 | > 100 µM (inactive) | > 100 µM (inactive) | > 100 µM (inactive) | > 100 µM (inactive) | > 100 µM (inactive) | > 100 µM (inactive) |  | > 100 µM (inactive) | > 100 µM (inactive) | 82.2 µM (inactive) | > 100 µM (inactive) | > 100 µM (inactive) | > 100 µM (inactive) | > 100 µM (inactive) |  | 97.7 µM (inactive) | 69.8 µM (inactive)
CO/N=C(\C(=O)Nc1cncs1)c1csc(N)n1 | > 10 µM (inactive) | > 10 µM (inactive) | > 10 | > 10 µM (inactive) | > 10 µM (inactive) | > 10 µM (inactive) | > 10 µM (inactive) | > 10 µM (inactive) | > 10 µM (inactive) | > 10 µM (inactive) | > 10 µM (inactive) | > 10 µM (inactive) | > 10 µM (inactive) |  | > 10 µM (inactive) | > 10 µM (inactive) | > 10 µM (inactive) | > 10 µM (inactive) | > 10 µM (inactive) | > 10 µM (inactive)
CCCCCc1cc2cc3c(c(O)c2c(=O)[nH]1)C1(CCC3)C(=O)c2c(O)ccc(O)c2C1=O | > 100 µM (inactive) | 38.6 µM (inactive) | > 100 | > 100 µM (inactive) |  | > 100 µM (inactive) | > 100 µM (inactive) | > 100 µM (inactive) | 99.5 µM (inactive) | > 100 µM (inactive) | > 100 µM (inactive) | > 100 µM (inactive) | > 100 µM (inactive) | > 100 µM (inactive) | > 100 µM (inactive) | > 100 µM (inactive) | > 100 µM (inactive) | > 100 µM (inactive) | > 100 µM (inactive) | > 100 µM (inactive)
COC12c3ccccc3-c3ccccc3C1[C@@H](C(=O)O)[C@H]2C(=O)O (some centres undefined) | > 10 µM (inactive) | > 10 µM (inactive) | > 10 | > 10 µM (inactive) |  | > 10 µM (inactive) | > 10 µM (inactive) | > 10 µM (inactive) | > 10 µM (inactive) | > 10 µM (inactive) | > 10 µM (inactive) | > 10 µM (inactive) | > 10 µM (inactive) | > 10 µM (inactive) | > 10 µM (inactive) | > 10 µM (inactive) | > 10 µM (inactive) | > 10 µM (inactive) | > 10 µM (inactive) | > 10 µM (inactive)
COc1cc2c(cc1OC)-c1[nH]c3ccc(C#N)cc3c1CC(=O)N2 | 57.5 µM (inactive) | > 27 µM (inactive) | 4.02 | > 100 µM (inactive) | > 84.9 µM (inactive) | 8.79 µM (inactive) | 7.74 µM (inactive) | 5.04 µM (inactive) | > 100 µM (inactive) | 6.14 µM (inactive) | 8.09 µM (inactive) | 1.56 µM (inactive) | 1.71 µM (inactive) | 3.8 µM (inactive) | 3.33 µM (inactive) |  | 0.861 µM (active) | 3.69 µM (inactive) | 5.31 µM (inactive) | 0.521 µM (active)
COc1cc(O)c(C(=O)/C=C/c2ccccc2)c(OC)c1 [FLAVOKAWAIN B] | 6.1 µM (inactive) | 6.55 µM (inactive) | 4.51 | 7.64 µM (inactive) | 4.14 µM (inactive) | 4.71 µM (inactive) | 4.43 µM (inactive) | 3.29 µM (inactive) | 3.8 µM (inactive) | 13 µM (inactive) | 7.94 µM (inactive) | 5.28 µM (inactive) | 3.52 µM (inactive) | 4.15 µM (inactive) | 7.73 µM (inactive) |  | 3.2 µM (inactive) | 23.9 µM (inactive) | 3.54 µM (inactive) | 3.78 µM (inactive)
